Data: patent publication US20100331348A1, “TROPANE DERIVATIVES USEFUL AS PESTICIDES” (SYNGENTA CROP PROTECTION, INC., priority 2007, published 2010)
Read-outs that look alike come from different tables or passages of the source.

What was measured:
Format in all cases: in vivo
[1] = system: Puccinia recondita f.sp. tritici; experiment: Puccinia recondita f.sp. tritici (wheat brown rust) leaf disk assay; settings: foliar, 216 h, preventive, nine days after inoculation, read-out: control of fungal infection, Puccinia recondita f.sp. tritici
Pyricularia oryzae = experiment: whole plant or invertebrate; settings: foliar, 96 h
[2] = system: Erysiphe graminis f.sp. tritici; experiment: Erysiphe graminis f.sp. tritici (wheat powdery mildew) leaf disk assay; settings: Blumeria graminis, foliar, 96 h, preventive, four days after inoculation, read-out: control of fungal infection, Erysiphe graminis fsp. tritici
[3] = read-out: control of fungal infection, Pyricularia oryzae (at least 60% list)
[4] = read-out: control of fungal infection, Pyricularia oryzae (at least 80% list)

Row | SMILES | pest or weed control at 200 ppm [1] [%] | pest or weed control at 200 ppm (Pyricularia oryzae; [3]) [%] | pest or weed control at 200 ppm (Pyricularia oryzae; [4]) [%] | pest or weed control at 200 ppm [2] [%]
1 | CCc1ncnc(N2C3CCC2CC(=CC(=O)Nc2ccc(Cl)cc2)C3)c1Cl [Example 3.11] | ≥ 80 | ≥ 60 | – | –
2 | COc1cc(OCC=C2CC3CCC(C2)N3c2ncnc3sccc23)ccc1Cl [Example 3.24] | ≥ 80 | – | ≥ 80 | –
3 | Fc1ccc(F)c(OC2C[C@H]3CC[C@@H](C2)N3c2ncnc3sccc23)c1 (stereo partly drawn) [Example 2.25] | – | ≥ 60 | – | ≥ 80
4 | FC(F)(F)c1cccc(OC2C[C@H]3CC[C@@H](C2)N3c2ncnc3sccc23)n1 (stereo partly drawn) [Example 2.60] | ≥ 80 | ≥ 60 | – | ≥ 80
5 | Clc1cc(Br)ccc1OC1C[C@H]2CC[C@@H](C1)N2c1ncnc2sccc12 (stereo partly drawn) [Example 1.28] | – | ≥ 60 | – | –
6 | FC(F)(F)C(F)(F)c1csc(CC2CC3CCC(C2)N3c2ncnc3sccc23)n1 (stereo not drawn) [Example 7.20] | ≥ 80 | ≥ 60 | – | –
7 | FC(F)(F)c1ccnc(OC2C[C@H]3CC[C@@H](C2)N3c2ccnc3c(Cl)cccc23)c1 (stereo partly drawn) [Example 2.195] | – | ≥ 60 | – | –
8 | CCc1ncnc(N2C3CCC2CC(=NOCc2ccc(-c4ccccc4C#N)cc2)C3)c1Cl [Example 5.58] | ≥ 80 | – | – | ≥ 80
9 | Cn1cc(C(=O)N2[C@@H]3CC[C@H]2CC(Oc2cccc(C(F)(F)F)n2)C3)c(C(F)(F)F)c1 (stereo partly drawn) [Example 2.221] | – | ≥ 60 | – | –
10 | COCc1ncnc(N2[C@@H]3CC[C@H]2CC(Oc2cccc(C(F)(F)F)n2)C3)c1OC (stereo partly drawn) [Example 2.137] | ≥ 80 | – | – | ≥ 80
11 | CCn1nnc(-c2ccc(CON=C3CC4CCC(C3)N4c3ncnc4sccc34)cc2)n1 [Example 5.247] | ≥ 80 | – | – | ≥ 80
12 | CCc1ncnc(N2C3CCC2CC(=NOCc2cccc(Br)c2)C3)c1Cl [Example 5.39] | ≥ 80 | – | – | ≥ 80
13 | Fc1c(F)c(F)c(CON=C2CC3CCC(C2)N3c2ncnc3sccc23)c(F)c1F [Example 5.225] | ≥ 80 | – | – | ≥ 80
14 | Cc1ccc(C)c(CON=C2CC3CCC(C2)N3c2ncnc3sccc23)c1 [Example 5.203] | ≥ 80 | ≥ 60 | – | ≥ 80
15 | Fc1ccc(OC2C[C@H]3CC[C@@H](C2)N3c2ncnc3sccc23)cc1C(F)(F)F (stereo partly drawn) [Example 2.52] | – | ≥ 60 | – | –
16 | CCc1ncnc(N2C3CCC2CC(=NOCc2cccc(OC(F)F)c2)C3)c1Cl [Example 5.65] | ≥ 80 | – | – | ≥ 80
17 | c1ccc(Oc2cccc(CON=C3CC4CCC(C3)N4c3ncnc4sccc34)c2)cc1 [Example 5.173] | ≥ 80 | ≥ 60 | ≥ 80 | ≥ 80
18 | FC(F)(F)Oc1cccc(CON=C2CC3CCC(C2)N3c2ncnc3sccc23)c1 [Example 5.212] | ≥ 80 | ≥ 60 | – | ≥ 80
19 | CCc1ncnc(N2C3CCC2CC(=NOCc2cc(F)c(F)c(F)c2)C3)c1Cl [Example 5.67] | ≥ 80 | – | – | ≥ 80
20 | FC(F)(F)c1ccnc(OC2C[C@H]3CC[C@@H](C2)N3c2ncnc3ccccc23)c1 (stereo partly drawn) [Example 2.84] | ≥ 80 | ≥ 60 | – | ≥ 80

Row | SMILES | pest or weed control at 200 ppm [1] [%] | pest or weed control at 200 ppm (Pyricularia oryzae; [3]) [%] | pest or weed control at 200 ppm (Pyricularia oryzae; [4]) [%] | pest or weed control at 200 ppm [2] [%]
21 | OC1(Cc2ccccc2)CC2CCC(C1)N2c1ncnc2sccc12 (stereo not drawn) [Example 7.14] | – | – | ≥ 80 | –
22 | CCc1ncnc(C(C)c2ncnc(N3C4CCC3CC(=NOc3ncc(C(F)(F)F)cc3Cl)C4)c2Cl)c1Cl (stereo not drawn) [Example 5.124] | – | ≥ 60 | – | –
23 | CCc1ncnc(N2C3CCC2CC(=NOCc2cccc(CCl)c2)C3)c1Cl [Example 5.45] | ≥ 80 | – | – | ≥ 80
24 | O=C(c1ccccc1)c1ccc(OC2C[C@H]3CC[C@@H](C2)N3c2ncnc3sccc23)cc1 (stereo partly drawn) [Example 2.39] | – | ≥ 60 | – | –
25 | CCc1ncnc(N2[C@@H]3CC[C@H]2CC(Oc2ccc4sc(=O)oc4c2)C3)c1Cl (stereo partly drawn) [Example 2.177] | – | ≥ 60 | – | –
26 | CCc1ncnc(N2C3CCC2CC(=NOCc2noc(-c4ccc(C(F)(F)F)cc4)n2)C3)c1Cl [Example 5.126] | ≥ 80 | – | – | ≥ 80
27 | CCc1ncnc(N2C3CCC2CC(=NOCc2ccc(F)c(F)c2)C3)c1Cl [Example 5.56] | ≥ 80 | – | – | ≥ 80
28 | O=c1oc2cc(OC3C[C@H]4CC[C@@H](C3)N4c3ncnc4sccc34)ccc2s1 (stereo partly drawn) [Example 2.69] | – | ≥ 60 | – | –
29 | Fc1ccc(OC2C[C@H]3CC[C@@H](C2)N3c2ncnc3sccc23)cc1F (stereo partly drawn) [Example 1.18] | ≥ 80 | – | – | ≥ 80
30 | CCCNC(=O)C=C1CC2CCC(C1)N2c1ncnc2sccc12 [Example 3.31] | ≥ 80 | – | ≥ 80 | –
31 | c1ccc(-c2ccc(CON=C3CC4CCC(C3)N4c3ncnc4sccc34)cc2)cc1 [Example 5.175] | ≥ 80 | – | – | ≥ 80
32 | CCc1ncnc(N2C3CCC2CC(=NOCc2cccc(Oc4ccccc4)c2)C3)c1Cl [Example 5.18] | ≥ 80 | – | – | ≥ 80
33 | Cc1nn(C)c2nccc(N3C4CCC3CC(=NOCc3ccc(Cl)cc3)C4)c12 [Example 5.256] | ≥ 80 | ≥ 60 | – | ≥ 80
34 | CC(C)(C)c1csc(CC2CC3CCC(C2)N3c2ncnc3sccc23)n1 (stereo not drawn) [Example 7.17] | – | ≥ 60 | ≥ 80 | –
35 | Fc1ccc(OC2C[C@H]3CC[C@@H](C2)N3c2ncnc3sccc23)cc1F (stereo partly drawn) [Example 2.18] | – | ≥ 60 | – | –
36 | CCCCNC1C[C@H]2CC[C@@H](C1)N2c1ncnc2sccc12 (stereo partly drawn) [Example 4.9] | – | – | ≥ 80 | –
37 | Cc1nn(C)c2nccc(N3[C@@H]4CC[C@H]3CC(Oc3ccc(Oc5ccc(C(F)(F)F)cn5)cc3)C4)c12 (stereo partly drawn) [Example 2.160] | – | ≥ 60 | – | –
38 | CCc1ncnc(N2C3CCC2CC(=NOCc2cc(C)ccc2C)C3)c1Cl [Example 5.47] | ≥ 80 | – | – | ≥ 80
39 | Fc1cc(Cl)cnc1ON=C1CC2CCC(C1)N2c1ncnc2sccc12 [Example 5.182] | ≥ 80 | – | – | ≥ 80
40 | CCc1ncnc(N2C3CCC2CC(=NOCc2cc(F)cc(F)c2F)C3)c1Cl [Example 5.80] | ≥ 80 | – | – | ≥ 80

Row | SMILES | pest or weed control at 200 ppm [1] [%] | pest or weed control at 200 ppm (Pyricularia oryzae; [3]) [%] | pest or weed control at 200 ppm (Pyricularia oryzae; [4]) [%] | pest or weed control at 200 ppm [2] [%]
41 | CSc1nccc(N2[C@@H]3CC[C@H]2CC(Oc2cccc(C(F)(F)F)n2)C3)n1 (stereo partly drawn) [Example 2.98] | – | ≥ 60 | – | –
42 | CCCCOCON=C1CC2CCC(C1)N2c1ncnc2sccc12 [Example 5.178] | ≥ 80 | ≥ 60 | – | ≥ 80
43 | CCc1ncnc(N2C3CCC2CC(=NOCc2cc(F)cc(F)c2)C3)c1Cl [Example 5.57] | ≥ 80 | – | ≥ 80 | ≥ 80
44 | Cc1nc(ON=C2CC3CCC(C2)N3c2ncnc3sccc23)cc(-c2ccccc2)n1 [Example 5.236] | – | ≥ 60 | – | –
45 | CCc1ncnc(N2C3CCC2CC(=NOCc2cccc(Cl)c2Cl)C3)c1Cl [Example 5.59] | ≥ 80 | – | – | ≥ 80
46 | Fc1ccc(C(F)(F)F)c(CON=C2CC3CCC(C2)N3c2ncnc3sccc23)c1 [Example 5.234] | ≥ 80 | – | ≥ 80 | ≥ 80
47 | Fc1cc(CON=C2CC3CCC(C2)N3c2ncnc3sccc23)cc(F)c1F [Example 5.208] | ≥ 80 | – | – | ≥ 80
48 | CCc1ncnc(N2C3CCC2CC(CC(=O)Nc2ccc(Cl)cc2)C3)c1Cl (stereo not drawn) [Example 7.22] | ≥ 80 | ≥ 60 | ≥ 80 | –
49 | CCc1ncnc(N2C3CCC2CC(=NOCc2cc(F)cc4c2OCOC4)C3)c1Cl [Example 5.121] | ≥ 80 | – | – | ≥ 80
50 | Cc1nn(C)c2nccc(N3[C@@H]4CC[C@H]3CC(Oc3ccc(Cl)cc3)C4)c12 (stereo partly drawn) [Example 1.138] | – | ≥ 60 | – | –
51 | CCc1ncnc(N2C3CCC2CC(=NOCc2ccccc2-c2ccccc2)C3)c1Cl [Example 5.35] | ≥ 80 | – | – | ≥ 80
52 | Cc1csc2c(N3[C@@H]4CC[C@H]3CC(Oc3ccc(C(F)(F)F)cn3)C4)ncnc12 (stereo partly drawn) [Example 2.81] | – | ≥ 60 | – | –
53 | Cn1cc(C(=O)N2[C@@H]3CC[C@H]2CC(Oc2cc(C(F)(F)F)ccn2)C3)c(C(F)(F)F)c1 (stereo partly drawn) [Example 2.219] | – | ≥ 60 | – | –
54 | CCc1ncnc(N2C3CCC2CC(=NOCc2ccc4ccccc4n2)C3)c1Cl [Example 5.89] | ≥ 80 | – | – | ≥ 80
55 | CCc1ncnc(N2C3CCC2CC(=NOCc2c(F)c(F)c(F)c(F)c2F)C3)c1Cl [Example 5.84] | ≥ 80 | – | – | ≥ 80
56 | CCc1ncnc(N2C3CCC2CC(=NOCC2COc4ccccc4O2)C3)c1Cl (stereo not drawn) [Example 5.93] | ≥ 80 | – | – | ≥ 80
57 | c1ccc(CNC2C[C@H]3CC[C@@H](C2)N3c2ncnc3sccc23)cc1 (stereo partly drawn) [Example 4.10] | – | – | ≥ 80 | –
58 | Fc1cc2c(c(CON=C3CC4CCC(C3)N4c3ncnc4sccc34)c1)OCOC2 [Example 5.257] | ≥ 80 | – | – | ≥ 80
59 | FC(F)(F)c1cccc(OC2C[C@H]3CC[C@@H](C2)N3c2ccncn2)n1 (stereo partly drawn) [Example 2.86] | ≥ 80 | – | – | ≥ 80
